US9593156B2 (priority 2012, dated 2017)
Where two headings read alike, the source gives them in different places. Ends that are not written are not given here.

Tests used:
insulin receptor = insulin receptor (Homo sapiens, UniProt P06213); test: Insulin receptor competition binding assay (scintillation proximity); design: expressed in transfected cells; plasma membrane fragments
[1] = biological target: T1, type A insulin receptor (IR-A) (Homo sapiens, UniProt P06213); test: Receptor kinase activity (phosphorylation) assay, type A insulin receptor; format: cell-based; settings: for % Insulin Activity IR-A: Table 12
T1 construct: expressed in transfected cells; host or cells: HEK293

[2] = biological target: T2, type B insulin receptor (IR-B) (Homo sapiens, UniProt P06213); test: Receptor kinase activity (phosphorylation) assay, type B insulin receptor; format: cell-based; settings: for % Insulin Activity IR-B: Table 12
T2 construct: expressed in transfected cells; host or cells: HEK293

IGF-1 receptor = IGF-1 receptor (Homo sapiens, UniProt P08069); test: Receptor kinase activity (phosphorylation) assay, IGF-1 receptor; format: cell-based; design: expressed in transfected cells; host or cells: HEK293; settings: for % Insulin Activity IGF-1 R: Table 12

Compound: CC[C@H](C)[C@H](NC(=O)CN)C(=O)N[C@H](C(=O)N[C@@H](CC(=O)O)C(=O)N[C@@H](CCC(=O)O)C(=O)N[C@H]1CSSC[C@@H]2NC(=O)[C@H](CO)NC(=O)[C@H](C)NC(=O)[C@H](Cc3c[nH]cn3)NC(=O)[C@H](CSSC[C@H](NC(=O)[C@H](CC(C)C)NC(=O)[C@H](Cc3c[nH]cn3)NC(=O)[C@H](CCC(=O)O)NC(=O)[C@@H]3CCCN3C(=O)CN)C(=O)NCC(=O)N[C@@H](C)C(=O)N[C@@H](CC(=O)O)C(=O)N[C@@H](CC(C)C)C(=O)N[C@@H](C(C)C)C(=O)N[C@@H](CC(=O)O)C(=O)N[C@@H](C)C(=O)N[C@@H](CC(C)C)C(=O)N[C@@H](Cc3ccc(O)cc3)C(=O)N[C@@H](CC(C)C)C(=O)N[C@@H](C(C)C)C(=O)N[C@H](C(=O)NCC(=O)N[C@@H](CC(=O)O)C(=O)N[C@@H](C)C(=O)NCC(=O)N[C@@H](Cc3ccccc3)C(=O)N[C@@H](Cc3ccc(O)cc3)C(N)=O)CSSC[C@@H](C(=O)N[C@@H](CC(N)=O)C(=O)O)NC(=O)[C@H](Cc3ccc(O)cc3)NC(=O)[C@H](CC[S+](C)[O-])NC(=O)[C@H](CCC(=O)O)NC(=O)[C@H](CC(C)C)NC(=O)[C@H](CCCNC(=N)N)NC(=O)[C@H](CCCNC(=N)N)NC(=O)[C@H](CC(C)C)NC(=O)[C@H](CC(=O)O)NC2=O)NC1=O)C(C)C (stereo partly shown)
- % insulin (in test) (insulin receptor): 400.7%

Compound: CC[C@H](C)[C@H](NC(=O)CNC(=O)[C@@H]1CCCN1C(=O)[C@H](C)N)C(=O)N[C@H](C(=O)N[C@@H](CC(=O)O)C(=O)N[C@@H](CCC(=O)O)C(=O)N[C@H]1CSSC[C@@H]2NC(=O)[C@H](CO)NC(=O)[C@H](CCCNC(=N)N)NC(=O)[C@H](Cc3ccccc3)NC(=O)[C@H](CSSC[C@H](NC(=O)[C@H](CC(C)C)NC(=O)[C@@H](NC(=O)[C@H](CCC(=O)O)NC(=O)[C@@H]3CCCN3C(=O)CN)[C@@H](C)O)C(=O)NCC(=O)N[C@@H](C)C(=O)N[C@@H](CCC(=O)O)C(=O)N[C@@H](CC(C)C)C(=O)N[C@@H](C(C)C)C(=O)N[C@@H](CC(=O)O)C(=O)N[C@@H](C)C(=O)N[C@@H](CC(C)C)C(=O)N[C@@H](Cc3ccc(O)cc3)C(=O)N[C@@H](CC(C)C)C(=O)N[C@@H](C(C)C)C(=O)N[C@H](C(=O)NCC(=O)N[C@@H](CC(=O)O)C(=O)N[C@@H](CCCNC(=N)N)C(=O)NCC(=O)N[C@@H](Cc3ccccc3)C(=O)N[C@@H](Cc3ccc(O)cc3)C(=O)N[C@@H](Cc3ccccc3)C(=O)N[C@@H](CC(N)=O)C(=O)N[C@@H](CCCCN)C(=O)N3CCC[C@H]3C(=O)N[C@H](C(N)=O)[C@@H](C)O)CSSC[C@@H](C(=O)N[C@@H](C)C(N)=O)NC(=O)[C@H](Cc3ccc(O)cc3)NC(=O)[C@H](CCSC)NC(=O)[C@H](CCC(=O)O)NC(=O)[C@H](CC(C)C)NC(=O)[C@H](CCCNC(=N)N)NC(=O)[C@H](CCCNC(=N)N)NC(=O)[C@H](CC(C)C)NC(=O)[C@H](CC(=O)O)NC2=O)NC1=O)C(C)C [IGF1 (Y^B16L^B17) (AlaPro)^A-1,0]
- % of Insulin Activity (insulin receptor; Table 8): 37.12%

Compound: CC[C@H](C)[C@H](NC(=O)CN)C(=O)N[C@H](C(=O)N[C@@H](CC(=O)O)C(=O)N[C@@H](CCC(=O)O)C(=O)N[C@H]1CSSC[C@@H]2NC(=O)[C@H](CO)NC(=O)[C@H](CCCNC(=N)N)NC(=O)[C@H](Cc3ccccc3)NC(=O)[C@H](CSSC[C@H](NC(=O)[C@H](CC(C)C)NC(=O)[C@@H](NC(=O)[C@H](CCC(=O)O)NC(=O)[C@@H]3CCCN3C(=O)CN)[C@@H](C)O)C(=O)NCC(=O)N[C@@H](C)C(=O)N[C@@H](CCC(=O)O)C(=O)N[C@@H](CC(C)C)C(=O)N[C@@H](C(C)C)C(=O)N[C@@H](CC(=O)O)C(=O)N[C@@H](C)C(=O)N[C@@H](CC(C)C)C(=O)N[C@@H](Cc3ccc(O)cc3)C(=O)N[C@@H](CC(C)C)C(=O)N[C@@H](C(C)C)C(=O)N[C@H](C(=O)NCC(=O)N[C@@H](CC(=O)O)C(=O)N[C@@H](CCCNC(=N)N)C(=O)NCC(=O)N[C@@H](Cc3ccccc3)C(=O)N[C@@H](Cc3ccc(O)cc3)C(=O)N[C@@H](Cc3ccccc3)C(=O)N[C@@H](CC(N)=O)C(=O)N[C@@H](CCCCN)C(=O)N3CCC[C@H]3C(=O)N[C@H](C(N)=O)[C@@H](C)O)CSSC[C@@H](C(=O)N[C@@H](C)C(N)=O)NC(=O)[C@H](Cc3ccc(N)cc3)NC(=O)[C@H](CCSC)NC(=O)[C@H](CCC(=O)O)NC(=O)[C@H](CC(C)C)NC(=O)[C@H](CCCNC(=N)N)NC(=O)[C@H](CCCNC(=N)N)NC(=O)[C@H](CC(C)C)NC(=O)[C@H](CC(=O)O)NC2=O)NC1=O)C(C)C [IGF1 (Y^B16L^B17) (p-NH2—F)^A19 amide]
- % of Insulin Activity (insulin receptor; Table 7): 22%

Compound: CC[C@H](C)[C@H](NC(=O)CN)C(=O)N[C@H](C(=O)N[C@@H](CC(=O)O)C(=O)N[C@@H](CCC(=O)O)C(=O)N[C@H]1CSSC[C@@H]2NC(=O)[C@H](CO)NC(=O)[C@H](CCCNC(=N)N)NC(=O)[C@H](Cc3ccccc3)NC(=O)[C@H](CSSC[C@H](NC(=O)[C@H](CC(C)C)NC(=O)[C@@H](NC(=O)[C@H](CCC(=O)O)NC(=O)[C@@H]3CCCN3C(=O)CN)[C@@H](C)O)C(=O)NCC(=O)N[C@@H](C)C(=O)N[C@@H](CCC(=O)O)C(=O)N[C@@H](CC(C)C)C(=O)N[C@@H](C(C)C)C(=O)N[C@@H](CC(=O)O)C(=O)N[C@@H](C)C(=O)N[C@@H](CC(C)C)C(=O)N[C@@H](Cc3ccc(O)cc3)C(=O)N[C@@H](CC(C)C)C(=O)N[C@@H](C(C)C)C(=O)N[C@H](C(=O)NCC(=O)N[C@@H](CC(=O)O)C(=O)N[C@@H](CCCNC(=N)N)C(=O)NCC(=O)N[C@@H](Cc3ccccc3)C(=O)N[C@@H](Cc3ccc(O)cc3)C(=O)N[C@@H](Cc3ccccc3)C(=O)N[C@@H](CC(N)=O)C(=O)N[C@@H](CCCCN)C(=O)N3CCC[C@H]3C(=O)N[C@H](C(N)=O)[C@@H](C)O)CSSC[C@@H](C(=O)N[C@@H](C)C(N)=O)NC(=O)[C@H](Cc3ccc(O)cc3)NC(=O)[C@H](CCSC)NC(=O)[C@H](CCC(=O)O)NC(=O)[C@H](CC(C)C)NC(=O)[C@H](CCCNC(=N)N)NC(=O)[C@H](CCCNC(=N)N)NC(=O)[C@H](CC(C)C)NC(=O)[C@H](CC(=O)O)NC2=O)NC1=O)C(C)C [IGF1 (Y^B16L^B17)]
- % of Insulin Activity (insulin receptor; Table 6): 262%

Compound: CC[C@H](C)[C@H](NC(=O)CN)C(=O)N[C@H](C(=O)N[C@@H](CC(=O)O)C(=O)N[C@@H](CCC(=O)O)C(=O)N[C@H]1CSSC[C@@H]2NC(=O)[C@H](CO)NC(=O)[C@H](CCCNC(=N)N)NC(=O)[C@H](Cc3ccccc3)NC(=O)[C@H](CSSC[C@H](NC(=O)[C@H](CC(C)C)NC(=O)[C@H](Cc3c[nH]cn3)NC(=O)[C@H](CCC(=O)O)NC(=O)[C@@H]3CCCN3C(=O)CN)C(=O)NCC(=O)N[C@@H](C)C(=O)N[C@@H](CC(=O)O)C(=O)N[C@@H](CC(C)C)C(=O)N[C@@H](C(C)C)C(=O)N[C@@H](CC(=O)O)C(=O)N[C@@H](C)C(=O)N[C@@H](CC(C)C)C(=O)N[C@@H](Cc3ccc(O)cc3)C(=O)N[C@@H](CC(C)C)C(=O)N[C@@H](C(C)C)C(=O)N[C@H](C(=O)NCC(=O)N[C@@H](CC(=O)O)C(=O)N[C@@H](CCCNC(=N)N)C(=O)NCC(=O)N[C@@H](Cc3ccccc3)C(=O)N[C@@H](Cc3ccc(O)cc3)C(N)=O)CSSC[C@@H](C(=O)N[C@@H](C)C(N)=O)NC(=O)[C@H](Cc3ccc(O)cc3)NC(=O)[C@H](CC[S+](C)[O-])NC(=O)[C@H](CCC(=O)O)NC(=O)[C@H](CC(C)C)NC(=O)[C@H](CCCNC(=N)N)NC(=O)[C@H](CCCNC(=N)N)NC(=O)[C@H](CC(C)C)NC(=O)[C@H](CC(=O)O)NC2=O)NC1=O)C(C)C (stereo partly shown) [IGF-1 A:B(H5D10Y16L17) (S═O) DPI]
- % insulin (in test) (insulin receptor; Table 9, Insulin Receptor): 316.0%

Compound: B2, A14-PEG10K di-PEGylated MIU-35 (GPEHLCGAELVDALYLVCGDRGFYGYGSSSRKAPQTGIVDECCFRSCDLK(PEG 10 kDa)RLENYCN; not fully specified (N-terminus); ends and bridges not checked; also: PEG10K at B2) [MIU-69]
- % Insulin Activity IR-A [1]: 1.0%
- % Insulin Activity IR-B [2]: 0.5%
- % Insulin Activity IGF-1 R (IGF-1 receptor): <0.1%

Compound: B2, B22-PEG10K di-PEGylated MIU-35 (GPEHLCGAELVDALYLVCGDK(PEG 10 kDa)GFYGYGSSSRKAPQTGIVDECCFRSCDLRRLENYCN; not fully specified (N-terminus); ends and bridges not checked; also: PEG10K at B2) [MIU-68]
- % Insulin Activity IR-A [1]: 0.4%
- % Insulin Activity IR-B [2]: 0.1%
- % Insulin Activity IGF-1 R (IGF-1 receptor): <0.1%

Compound: B2, C8-PEG10K di-PEGylated MIU-35 (GPEHLCGAELVDALYLVCGDRGFYGYGSSSRK(PEG 10 kDa)APQTGIVDECCFRSCDLRRLENYCN; not fully specified (N-terminus); ends and bridges not checked; also: PEG10K at B2) [MIU-67]
- % Insulin Activity IR-A [1]: 0.2%
- % Insulin Activity IR-B [2]: 0.1%
- % Insulin Activity IGF-1 R (IGF-1 receptor): <0.1%

Compound: B^1(A5H10Y16L17)25-C^1-A^1(H8N18N21) [Ala,B5]
- IR-B [2]: 5.7%
- IGF-1 R (IGF-1 receptor): 2.5%

Compound: B^1(H5,10Y16L17A24)25-C^1-A^1(H8N18,N21) [Ala,B24]
- IR-A [1]: 0.1%
- IR-B [2]: 0.4%
- IGF-1 R (IGF-1 receptor): 0.3%

Compound: B^1(H5,10Y16L17R29)30-C^1des9-12-A^1(H8,N18,21) (GPEHLCGAHLVDALYLVCGDRGFYFNKRTGYGSSSRRGIVDECCHRSCDLRRLENYCN) [MIU-43]
- IR-A ([1]; Table 14): 97.5%
- IR-B ([2]; Table 14): 16.7%
- IGF-1 R (IGF-1 receptor; Table 14): 14.2%

Compound: GE5W-B^1(A5H10Y16L17)25-C^1-A^1(H8N18N21) [GE5W-Ala,B5]
- IR-A [1]: 8.6%
- IR-B [2]: 2.3%
- IGF-1 R (IGF-1 receptor): 0.3%
